Laboratory results: patent US20120101104A1, “TOPICAL GEL COMPOSITIONS AND METHODS OF USE” (GALDERMA S.A., priority 2010, published 2012)

What was measured:
[1] = Microscopic observation of gel compositions for methylparaben crystalline particles; type: physicochemical
Experimental: Microscopic observations were performed on additional representative batches of brimonidine topical gel compositions and placebo gel compositions containing 1.25% (w/w) carbomer, POBM and other ingredients. The observations have been done on one tube of each batch, with the microscope Axiolab DRBKT Zeiss no. 023733.01 with a camera ICC Zeiss or the microscope Olympus BX60. The microscopic observations were done at 5° C. and room temperature.
Numerous formulations with different ingredients and varying concentrations of the ingredients were made and tested for the presence of the paraben crystals by microscopic observations. The microbiological quality of the formulations was also analyzed by using acceptance-test criteria in preservative-efficacy testing (PET) in the United States Pharmacopeia (USP) and the European Pharmacopoeia (EP).

[2] = Methylparaben concentration in supernatant after centrifugation of a batch with crystals; type: physicochemical
Experimental: Centrifugation was performed on the batch to collect crystals at the bottom of the centrifuge tube, thus removing them from the supernatant.

Row | SMILES | crystalline particles in formulation ([1]; methylparaben replaced with Na POBM at 0.3% (w/w)) | supernatant methylparaben as share of the 0.3% (w/w) in the original formulation ([2]; batch originally containing 0.3% (w/w) methylparaben) | methylparaben concentration in the supernatant ([2]; batch originally containing 0.3% (w/w) methylparaben with crystals, after centrifugation) | recrystallization in formulation ([1]; 0.3% (w/w) POBM, addition of 0.1% of EDTA)
1 | COC(=O)c1ccc([O-])cc1.[Na+] [Na POBM] | crystalline particles of Na POBM were still observed | – | – | –
2 | COC(=O)c1ccc(O)cc1 [methylparaben] | – | about 66% | about 0.2 % (w/w) | immediate recrystallization
